#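 In this assay, cells in 96-well plates receive the compound at five concentrations for 48 hours. Endpoints are linearly interpolated between the surrounding concentrations. GI50 = concentration required for 50% inhibition of growth. At the TGI there is no net growth.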
# Key:
# Test in all cases: NCI tumour cell line growth inhibition, 48 h
# [1] = tested on: MDA-MB-231 breast
# [2] = tested on: UACC-62 melanoma
# [3] = tested on: OVCAR-8 ovarian
# [4] = tested on: RXF 393 renal
# [5] = tested on: CCRF-CEM leukemia
# [6] = tested on: SNB-19 CNS
# [7] = tested on: ACHN renal
# [8] = tested on: SK-MEL-5 melanoma
# [9] = tested on: K-562 leukemia
# [10] = tested on: SN12C renal
# [11] = tested on: TK-10 renal
# [12] = tested on: MOLT-4 leukemia
# [13] = tested on: UACC-257 melanoma
# [14] = tested on: NCI-H23 lung
# [15] = tested on: COLO 205 colon
# [16] = tested on: BT-549 breast
# [17] = tested on: OVCAR-4 ovarian
# [18] = tested on: U251 CNS
# [19] = tested on: CAKI-1 renal
# [20] = tested on: HCT-116 colon
# [21] = tested on: SF-295 CNS
# [22] = tested on: UO-31 renal
# [23] = tested on: NCI-H460 lung
# [24] = tested on: SK-OV-3 ovarian
# [25] = tested on: M14 melanoma
# [26] = tested on: SK-MEL-28 melanoma
# [27] = tested on: HL-60(TB) leukemia
# [28] = tested on: RPMI-8226 leukemia
# [29] = tested on: NCI-H522 lung
# [30] = tested on: DU-145 prostate
# [31] = tested on: NCI/ADR-RES ovarian
# [32] = tested on: SF-268 CNS
# [33] = tested on: KM12 colon
# [34] = tested on: 786-0 renal
# [35] = tested on: NCI-H226 lung
# [36] = tested on: A549 NSCLC
# [37] = tested on: OVCAR-5 ovarian
# [38] = tested on: SR leukemia
# [39] = tested on: HOP-92 NSCLC
# [40] = tested on: IGROV1 ovarian
# [41] = tested on: SF-539 CNS
# [42] = tested on: HOP-62 NSCLC
# [43] = tested on: HS 578T breast
# [44] = tested on: SNB-75 CNS
# [45] = tested on: T-47D breast
# [46] = tested on: PC-3 prostate
# [47] = tested on: MDA-MB-435
# [48] = tested on: A498 renal
# [49] = tested on: EKVX NSCLC
# [50] = tested on: MALME-3M melanoma
# [51] = tested on: HT29 colon
# [52] = tested on: LOX IMVI melanoma
structure (smiles),measurement,setting,value
O=C1c2c(c3c4cc(Br)ccc4[nH]c3c3ccc4ccccc4c23)C(=O)N1CCN1CCNCC1,GI50,[1],2.34 µM
same,TGI,[1],6.32 µM
same,GI50,[2],12.8 µM
same,TGI,[2],31.3 µM
same,GI50,[3],1.96 µM
same,TGI,[3],5 µM
same,GI50,[4],6.97 µM
same,TGI,[4],23.4 µM
same,GI50,[5],0.947 µM
same,TGI,[5],6.8 µM
same,GI50,[6],1.8 µM
same,TGI,[6],3.79 µM
same,GI50,[7],11.1 µM
same,TGI,[7],27.4 µM
same,GI50,[8],18.1 µM
same,TGI,[8],38 µM
same,GI50,[9],1.28 µM
same,TGI,[9],3.05 µM
same,GI50,[10],13.5 µM
same,TGI,[10],36.6 µM
same,GI50,[11],19.8 µM
same,TGI,[11],38.1 µM
same,GI50,[12],1.04 µM
same,TGI,[12],4.14 µM
same,GI50,[13],12.9 µM
same,TGI,[13],28.4 µM
same,GI50,[14],2.96 µM
same,TGI,[14],12.7 µM
same,GI50,[15],6.51 µM
same,TGI,[15],27.7 µM
same,GI50,[16],13.1 µM
same,TGI,[16],30.7 µM
same,GI50,[17],12.3 µM
same,TGI,[17],33.9 µM
same,GI50,[18],1.49 µM
same,TGI,[18],2.86 µM
same,GI50,[19],10.5 µM
same,TGI,[19],24.6 µM
same,GI50,[20],1.73 µM
same,TGI,[20],3.13 µM
same,GI50,[21],13.9 µM
same,TGI,[21],32.9 µM
same,GI50,[22],11.2 µM
same,TGI,[22],27.2 µM
same,GI50,[23],2.38 µM
same,TGI,[23],10.2 µM
same,GI50,[24],16.2 µM
same,TGI,[24],30.8 µM
same,GI50,[25],10.7 µM
same,TGI,[25],25.7 µM
same,GI50,[26],15.7 µM
same,TGI,[26],35.1 µM
same,GI50,[27],6.78 µM
same,TGI,[27],26 µM
same,GI50,[28],2.19 µM
same,TGI,[28],5.26 µM
same,GI50,[29],1.67 µM
same,TGI,[29],7.46 µM
same,GI50,[30],2.09 µM
same,TGI,[30],4.53 µM
same,GI50,[31],3.66 µM
same,TGI,[31],26.7 µM
same,GI50,[32],12.3 µM
same,TGI,[32],36.3 µM
same,GI50,[33],3.21 µM
same,TGI,[33],11.6 µM
same,GI50,[34],2.94 µM
same,TGI,[34],9.44 µM
same,GI50,[35],10.8 µM
same,TGI,[35],39.5 µM
same,GI50,[36],2.6 µM
same,TGI,[36],9.13 µM
same,GI50,[37],2.88 µM
same,TGI,[37],9.14 µM
same,GI50,[38],0.507 µM
same,TGI,[38],2.79 µM
same,GI50,[39],14.4 µM
same,TGI,[39],28.7 µM
same,GI50,[40],11.8 µM
same,TGI,[40],33.7 µM
same,GI50,[41],1.92 µM
same,TGI,[41],3.82 µM
same,GI50,[42],6.28 µM
same,TGI,[42],26.9 µM
same,GI50,[43],17.9 µM
same,TGI,[43],52.4 µM
same,GI50,[44],18.3 µM
same,TGI,[44],35.5 µM
same,GI50,[45],4.3 µM
same,TGI,[45],26 µM
same,GI50,[46],2.91 µM
same,TGI,[46],11 µM
same,GI50,[47],3.12 µM
same,TGI,[47],10.8 µM
same,GI50,[48],16.1 µM
same,TGI,[48],29.8 µM
same,GI50,[49],1.98 µM
same,TGI,[49],4.96 µM
same,GI50,[50],14.3 µM
same,TGI,[50],36.3 µM
same,GI50,[51],1.64 µM
same,TGI,[51],3.11 µM
same,GI50,[52],2.06 µM
same,TGI,[52],5.3 µM

# From PubChem BioAssay (NCI)
